Three molecules from US12590061B2, “Crystalline form of acetylcholinesterase inhibitor and preparation method therefor and application thereof” (SHANGHAI INSTITUTE OF MATERIA MEDICA, CHINESE ACADEMY OF …, priority 2019, dated 2026) can be followed below.

What all share (type): physicochemical
Data set [1] is described as follows: Solubility experiment of each crystalline form in water.
Data set [2] is described as follows: Dynamic Vapor Sorption (DVS) / hygroscopicity test. The note with it: for Humidity change (DVS): within the conventional storage humidity range. The protocol:
Dynamic Vapor Sorption (DVS) test/Hygroscopicity test is a rapid measurement of the increase and loss of sample moisture caused by a flowing carrier gas with a set relative humidity (RH). The hygroscopicity of the sample is then determined by measuring the increase/decrease in the mass of the material to detect the adsorption/desorption of water vapor on a high-sensitivity, high-stability digital microbalance in a self-suspended state.
In the present invention, the test parameters of DVS are as follows: instrument model: SMS DVS Intrinsic; measurement temperature 25° C., 0-95% RH.

A short description of data set [3]: Crystal transformation experiment (suspension stirring, XRPD). The protocol:
Form A and Form B were mixed in equal amounts, and mixed in EA/Hep(1:1) to give a suspension, and XRPD test is performed after stirring at normal temperature (25° C.) for three days.

Values after ≈ are worked out from the molar mass of the structure shown. Where two headings read alike, the source gives them in different places.

As for `COc1cc2c(cc1OC)C(=O)C(CC1(F)CCN(Cc3ccccc3F)CC1)C2` (single isomer, unassigned) [Form A], the Solubility – broadly, how much of the substance goes into solution per volume – in data set [1] (Pure water) was found to be 140 µg/mL (≈ 0.337 mM); in data set [1] (water, pH 2.01, aqueous buffer, thermodynamic from solid, pH 2.01, read-out: Solubility), 12400 µg/mL (≈ 29.7 mM); in data set [1] (water, pH 4.59, aqueous buffer, thermodynamic from solid, pH 4.59, read-out: Solubility), 1860 µg/mL (≈ 4.48 mM); in data set [1] (water, pH 6.74, aqueous buffer, thermodynamic from solid, pH 6.74, read-out: Solubility), 140 µg/mL (≈ 0.337 mM). Also, the “Change in hygroscopicity (weight change, DVS)” value in data set [2] (0-95% relative humidity, 25° C.) is listed as “about 0.6%”. For the same molecule, the “Stability order of the three crystalline forms” value (shortened to “Stability order”) in data set [3] is reported as “Form A>Form B>Form C”.
Regarding `COc1cc2c(cc1OC)C(=O)C(CC1(F)CCN(Cc3ccccc3F)CC1)C2` (single isomer, unassigned) [Form C], the “Solubility compared with other form” value in data set [1] (in water, Form C becomes Form B after being transformed) is reported as “the same as Form B”. For the same molecule, the “Humidity change (DVS)” value in data set [2] was determined as 1.2%. In addition, the “Stability order” value in data set [3] was “Form A>Form B>Form C”. Also, the Crystal form transformation result in data set [3] (metastable crystalline) was “transfers to Form B”.
Turning to `COc1cc2c(cc1OC)C(=O)C(CC1(F)CCN(Cc3ccccc3F)CC1)C2` (single isomer, unassigned) [Form B], the Solubility in data set [1] (Pure water) turned out to be 8.9 µg/mL (≈ 0.0214 mM); in data set [1] (pH 2.01) it was 20500 µg/mL (≈ 49.3 mM); in data set [1] (pH 4.59), 2790 µg/mL (≈ 6.72 mM); in data set [1] (pH 6.74), 180 µg/mL (≈ 0.433 mM). Moreover, in data set [2], the “Humidity change (DVS)” value was 1%. The “Stability order” value in data set [3] is “Form A>Form B>Form C”.
